Assay results reported in patent US11597919B2, “Systems, methods and compositions for sequence manipulation with optimized functional CRISPR-Cas systems” (The Broad Institute, Inc., priority 2013, dated 2023).

Key:
[1] = test system: Factor VII; conditions: LNP siRNA systems containing these lipids; cited from earlier work
[2] = test system: genomic DNA in human embryonic kidney 293FT (HEK293FT) cells; experiment: SURVEYOR nuclease assay of Cas9 and sgRNA mutants (Example 12); assay type: cell-based
Description: Cells were transfected using Lipofectamine 2000 (Life Technologies) at 70-80% confluency following the manufacturer's recommended protocol.
Genomic DNA was extracted using the QuickExtract DNA Extraction Solution (Epicentre) following the manufacturer's protocol.
400 ng total of the purified PCR products were mixed with 2 μl 10× Taq DNA Polymerase PCR buffer (Enzymatics) and ultrapure water to a final volume of 20 μl, and subjected to a re-annealing process to enable heteroduplex formation: 95° C. for 10 min, 95° C. to 85° C. ramping at −2° C./s, 85° C. to 25° C. at −0.25° C./s, and 25° C. hold for 1 min. After re-annealing, products were treated with SURVEYOR nuclease and SURVEYOR enhancer S (Transgenomics) following the manufacturer's recommended protocol, and analyzed on 4-20% Novex TBE poly-acrylamide gels (Life Technologies). Gels were stained with SYBR Gold DNA stain (Life Technologies) for 30 min and imaged with a Gel Doc gel imaging system (Bio-rad). Quantification was based on relative band intensities. Indel percentage was determined by the formula, 100×(1−(1−(b+c)/(a+b+c))^1/2), where a is the integrated intensity of the undigested PCR product, and b and c are the integrated intensities of each cleavage product.

Molecule | gene silencing potency series [1] | further results
1,2-dilinoleyloxy-keto-N,N-dimethyl-3-aminopropane [DLinKDMA] | DLinKC2-DMA>DLinKDMA>DLinDMA>>DLinDAP | 
CCCCC/C=C\C/C=C\CCCCCCCC(=O)OCC(CN(C)C)OC(=O)CCCCCCC/C=C\C/C=C\CCCCC (stereo not drawn) [DLinDAP, 1,2-dilineoyl-3-dimethylammonium-propane] | DLinKC2-DMA>DLinKDMA>DLinDMA>>DLinDAP | 
CCCCC/C=C\C/C=C\CCCCCCCCOCC(CN(C)C)OCCCCCCCC/C=C\C/C=C\CCCCC (stereo not drawn) [DLinDMA, 1,2-dilinoleyloxy-3-N,N-dimethylaminopropane] | DLinKC2-DMA>DLinKDMA>DLinDMA>>DLinDAP | 
CCCCC/C=C\C/C=C\CCCCCCCCC1(CCCCCCCC/C=C\C/C=C\CCCCC)OCC(CCN(C)C)O1 (stereo not drawn) [DLinKC2-DMA, 1,2-dilinoleyl-4-(2-dimethylaminoethyl)-[1,3]-dioxolane] | DLinKC2-DMA>DLinKDMA>DLinDMA>>DLinDAP | 
Cas9 (A175-307): Cas9 mutant lacking the REC2 domain, SEQ ID NO: 116 (protein) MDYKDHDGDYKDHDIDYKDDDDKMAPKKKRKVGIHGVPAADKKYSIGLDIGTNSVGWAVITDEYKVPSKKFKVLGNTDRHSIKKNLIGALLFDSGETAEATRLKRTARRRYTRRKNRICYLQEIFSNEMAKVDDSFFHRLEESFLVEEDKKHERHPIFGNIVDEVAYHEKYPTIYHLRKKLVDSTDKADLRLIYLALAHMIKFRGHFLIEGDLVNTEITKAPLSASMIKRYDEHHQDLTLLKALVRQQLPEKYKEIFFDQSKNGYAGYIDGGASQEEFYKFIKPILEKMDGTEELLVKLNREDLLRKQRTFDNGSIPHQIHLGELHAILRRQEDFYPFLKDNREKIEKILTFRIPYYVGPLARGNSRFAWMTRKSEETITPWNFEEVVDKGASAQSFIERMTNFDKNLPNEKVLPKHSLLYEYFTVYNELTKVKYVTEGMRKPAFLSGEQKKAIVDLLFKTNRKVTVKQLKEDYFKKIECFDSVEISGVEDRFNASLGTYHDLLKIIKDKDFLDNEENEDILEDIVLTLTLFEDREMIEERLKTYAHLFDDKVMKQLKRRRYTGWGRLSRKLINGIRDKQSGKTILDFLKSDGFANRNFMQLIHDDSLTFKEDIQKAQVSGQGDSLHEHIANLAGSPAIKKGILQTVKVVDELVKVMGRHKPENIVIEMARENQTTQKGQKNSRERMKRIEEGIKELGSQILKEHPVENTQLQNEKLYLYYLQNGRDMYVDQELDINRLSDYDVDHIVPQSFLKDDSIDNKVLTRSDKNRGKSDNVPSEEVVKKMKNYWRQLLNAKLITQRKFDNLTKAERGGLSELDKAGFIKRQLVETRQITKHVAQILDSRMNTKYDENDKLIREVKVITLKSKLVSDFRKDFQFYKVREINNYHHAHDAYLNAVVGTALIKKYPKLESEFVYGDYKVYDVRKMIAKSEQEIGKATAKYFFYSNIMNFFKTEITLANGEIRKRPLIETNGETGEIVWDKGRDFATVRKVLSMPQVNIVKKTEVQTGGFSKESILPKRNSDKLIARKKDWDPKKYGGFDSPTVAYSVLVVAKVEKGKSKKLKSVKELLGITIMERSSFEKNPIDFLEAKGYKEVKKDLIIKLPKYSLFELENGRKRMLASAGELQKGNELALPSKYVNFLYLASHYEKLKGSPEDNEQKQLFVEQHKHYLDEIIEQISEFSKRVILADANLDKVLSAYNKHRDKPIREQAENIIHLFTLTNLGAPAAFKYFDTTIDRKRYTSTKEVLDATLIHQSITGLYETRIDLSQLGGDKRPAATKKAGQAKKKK |  | activity relative to wild-type Cas9 ([2]; indel, SURVEYOR, n=3): ~50%
A1099-1368: SpCas9 with deletion of the PI domain, SEQ ID NO: 118 (protein) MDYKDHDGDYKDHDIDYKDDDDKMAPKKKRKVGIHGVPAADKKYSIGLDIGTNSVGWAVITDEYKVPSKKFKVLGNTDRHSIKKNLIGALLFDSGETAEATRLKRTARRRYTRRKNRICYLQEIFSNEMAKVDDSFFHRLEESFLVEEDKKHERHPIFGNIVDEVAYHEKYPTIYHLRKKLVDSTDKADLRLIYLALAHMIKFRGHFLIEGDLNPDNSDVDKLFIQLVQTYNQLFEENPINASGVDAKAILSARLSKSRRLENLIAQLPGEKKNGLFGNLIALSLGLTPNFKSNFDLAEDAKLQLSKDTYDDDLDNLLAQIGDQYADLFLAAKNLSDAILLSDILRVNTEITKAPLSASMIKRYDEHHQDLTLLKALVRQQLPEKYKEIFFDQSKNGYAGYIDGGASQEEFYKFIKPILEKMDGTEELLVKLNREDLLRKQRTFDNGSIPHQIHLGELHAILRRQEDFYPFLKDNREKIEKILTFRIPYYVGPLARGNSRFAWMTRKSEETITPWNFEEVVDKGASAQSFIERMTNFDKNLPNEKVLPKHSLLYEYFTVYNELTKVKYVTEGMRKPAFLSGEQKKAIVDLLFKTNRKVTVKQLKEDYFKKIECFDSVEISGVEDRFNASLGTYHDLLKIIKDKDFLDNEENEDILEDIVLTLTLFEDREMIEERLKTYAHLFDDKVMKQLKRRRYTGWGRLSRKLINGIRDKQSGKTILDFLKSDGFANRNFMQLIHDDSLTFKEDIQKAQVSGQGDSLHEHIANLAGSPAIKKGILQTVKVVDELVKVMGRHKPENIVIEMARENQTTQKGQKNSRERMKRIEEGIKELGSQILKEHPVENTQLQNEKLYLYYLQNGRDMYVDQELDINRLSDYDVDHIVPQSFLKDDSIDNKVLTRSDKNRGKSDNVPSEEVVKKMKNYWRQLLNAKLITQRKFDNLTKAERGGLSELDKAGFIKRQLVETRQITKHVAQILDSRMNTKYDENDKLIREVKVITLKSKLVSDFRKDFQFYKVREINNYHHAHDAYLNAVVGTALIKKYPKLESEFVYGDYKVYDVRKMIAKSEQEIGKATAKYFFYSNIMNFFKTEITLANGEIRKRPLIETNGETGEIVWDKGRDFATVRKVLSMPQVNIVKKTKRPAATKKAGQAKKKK |  | DNA cleavage activity ([2]; Cas9 truncation and point mutants): abolished the cleavage activity
